US20190093170A1, “USE OF TRANSLATIONAL PROFILING TO IDENTIFY TARGET MOLECULES FOR THERAPEUTIC TREATMENT” (THE REGENTS OF THE UNIVERSITY OF CALIFORNIA, priority 2013, published 2019)

System: PC3 human prostate cancer cells
Assay: Ribosome profiling: translational efficiency (ribosome footprint vs RNA-seq read density);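 note: Per-gene footprint-to-mRNA density ratio averaged per codon over the coding sequence, scaled so the median gene equals 1.0 after excluding regulated genes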
Format: cell-based
Details: for Rapamycin TrlEff: 3-hour treatment with rapamycin (50 nM) in PC3 cells
Protocol: Given the critical role for mTOR in prostate cancer, PC3 human prostate cancer cells, in which mTOR is constitutively hyperactivated, were used to delineate translationally controlled gene expression networks upon complete or partial mTOR inhibition. Ribosome profiling was optimized to assess quantitatively ribosome occupancy genome-wide in cancer cells.
Cells were subsequently treated with cycloheximide (100 μg ml^−1; Sigma) and detergent lysis was performed in the dish. The lysate was treated with DNase and clarified, and a sample was taken for RNA-seq analysis. Lysates were subjected to ribosome footprinting by nuclease treatment. Ribosome-protected fragments were purified, and deep sequencing libraries were generated from these fragments, as well as from poly(A) mRNA purified from non-nuclease-treated lysates. These libraries were analyzed by sequencing on an Illumina GAII.
Ribosome footprint and RNA-seq sequencing reads were aligned against a library of transcripts from the UCSC Known Genes database GRCh37/hg19. The first 25 nucleotides of each read were aligned using Bowtie and this initial alignment was then extended to encompass the full fragment-derived portion of the sequencing read while excluding the linker sequence. Read density profiles were then constructed for the canonical transcript of each gene, using only reads with 0 or 1 total mismatches between the read sequence and the reference sequence, comprised of the transcript fragment followed by the linker sequence. Footprint reads were assigned to an A site nucleotide at position +15 to +17 of the alignment, based on the total fragment length; mRNA reads were assigned to the first nucleotide of the alignment. The average read density per codon was then computed for the coding sequence of each transcript, excluding the first 15 and last 5 codons, which can display atypical ribosome accumulation.
Average read density was used as a measure of mRNA abundance (RNA-seq reads) and of protein synthesis (ribosome profiling reads). For most analyses, genes were filtered to require at least 256 reads in the relevant RNA-seq samples. Translational efficiency was computed as the ratio of ribosome footprint read density to RNA-seq read density, scaled to normalize the translational efficiency of the median gene to 1.0 after excluding regulated genes (log 2 fold-change+1.5 after normalizing for the all-gene median). Changes in protein synthesis, mRNA abundance and translational efficiency were similarly computed as the ratio of read densities between different samples, normalized to give the median gene a ratio of 1.0. This normalization corrects for differences in the absolute number of sequencing reads obtained for different libraries.

CO[C@H]1C[C@@H]2CC[C@@H](C)[C@@](O)(O2)C(=O)C(=O)N2CCCC[C@H]2C(=O)O[C@H]([C@H](C)C[C@@H]2CC[C@@H](O)[C@H](OC)C2)CC(=O)[C@H](C)/C=C(\C)[C@@H](O)[C@@H](OC)C(=O)[C@H](C)C[C@H](C)/C=C/C=C/C=C/1C [Rapamycin, rapamycin]
Rapamycin TrlEff (gene ACD): 2.06 | TrlEff (gene ACTG1): −0.07 | TrlEff (gene AGRN): 0.51 | TrlEff (gene AHCY): −0.23 | TrlEff (gene ALKBH7): 0.28 | TrlEff (gene AP2A1): −0.04 | TrlEff (gene ARD1A): 0.01 | TrlEff (gene ATP5G2): −0.28 | Rapamycin TrlEff (gene C17orf28): 1.66 | TrlEff (gene C21orf66): −0.09 | Rapamycin TrlEff (gene CCNA1): 1.81 | TrlEff (gene CCNI): −0.45 | TrlEff (gene CD44): −0.46 | TrlEff (gene CIRBP): 0.10 | TrlEff (gene CLPTM1): 0.26 | TrlEff (gene COL6A2): 0.43 | TrlEff (gene CRTAP): −1.17 | Rapamycin TrlEff (gene DDX51): 1.68 | Rapamycin TrlEff (gene DGCR2): 1.69 | TrlEff (gene ECSIT): 0.41 | Rapamycin TrlEff (gene EEF1A1): −1.57 | TrlEff (gene EEF1A2): −0.03 | TrlEff (gene EEF1D): −0.84 | TrlEff (gene EEF1G): −1.15 | TrlEff (gene EEF2): −1.12 | TrlEff (gene EIF3H): −0.79 | TrlEff (gene EIF3L): −0.85 | TrlEff (gene EIF4B): −1.21 | TrlEff (gene EVPL): 0.30 | TrlEff (gene FAM83H): 0.71 | TrlEff (gene FAM128B): 0.27 | TrlEff (gene FASN): 0.47 | TrlEff (gene GAPDH): −0.27 | TrlEff (gene GLTSCR2): −0.68 | TrlEff (gene GNB2L1): −0.77 | Rapamycin TrlEff (gene GTPBP3): 1.56 | TrlEff (gene HNRNPA1): −0.86 | TrlEff (gene HSPA8): −0.46 | TrlEff (gene IMPDH2): −0.39 | TrlEff (gene LAMA5): 0.87 | TrlEff (gene LMF2): 0.39 | Rapamycin TrlEff (gene MAPK6): −2.43 | Rapamycin TrlEff (gene MAPKAPK2): 1.50 | TrlEff (gene MTA1): −0.05 | TrlEff (gene NCLN): 0.67 | Rapamycin TrlEff (gene NFATC21P): 1.54 | Rapamycin TrlEff (gene NR2F1): 1.94 | TrlEff (gene PABPC1): −1.44 | TrlEff (gene PABPC4): −0.80 | TrlEff (gene PACS1): 0.04 | TrlEff (gene PFDN5): −0.51 | TrlEff (gene PGLS): 0.20 | TrlEff (gene PGM1): −0.55 | TrlEff (gene PNKP): 0.74 | Rapamycin TrlEff (gene PRKD3): −1.72 | TrlEff (gene PTGES2): 0.52 | TrlEff (gene RABGGTB): −0.84 | Rapamycin TrlEff (gene RBPJ): −1.58 | TrlEff (gene RPL3): −1.08 | TrlEff (gene RPL4): −0.85 | TrlEff (gene RPL7): −1.06 | TrlEff (gene RPL7A): −0.74 | TrlEff (gene RPL9): −1.00 | TrlEff (gene RPL10): −0.79 | TrlEff (gene RPL10A): −0.94 | TrlEff (gene RPL11): −1.08 | TrlEff (gene RPL12): −0.94 | TrlEff (gene RPL13): −0.38 | TrlEff (gene RPL15): −0.51 | TrlEff (gene RPL18A): −0.82 | TrlEff (gene RPL19): −0.66 | TrlEff (gene RPL22): −0.89 | TrlEff (gene RPL22L1): −0.68 | TrlEff (gene RPL24): −0.63 | TrlEff (gene RPL26): −1.11 | TrlEff (gene RPL27): −0.33 | TrlEff (gene RPL27A): −0.96 | Rapamycin TrlEff (gene RPL28): −1.59 | TrlEff (gene RPL30): −0.99 | TrlEff (gene RPL31): −0.62 | TrlEff (gene RPL32): −0.97 | TrlEff (gene RPL34): −1.12 | TrlEff (gene RPL36A): −1.11 | TrlEff (gene RPL37A): −1.02 | TrlEff (gene RPL39): −1.65 | Rapamycin TrlEff (gene RPL39): −2.11 | TrlEff (gene RPL41): −1.15 | TrlEff (gene RPLP0): −0.42 | TrlEff (gene RPLP2): −1.18 | TrlEff (gene RPS2): −0.56 | TrlEff (gene RPS3): −0.92 | TrlEff (gene RPS3A): −1.15 | TrlEff (gene RPS4X): −1.15 | TrlEff (gene RPS5): −0.77 | TrlEff (gene RPS7): −0.76 | TrlEff (gene RPS9): −0.60 | TrlEff (gene RPS12): −1.22 | TrlEff (gene RPS13): −0.82 | TrlEff (gene RPS14): −0.60 | TrlEff (gene RPS15): 0.03 | TrlEff (gene RPS15A): −0.96 | TrlEff (gene RPS19): −0.74 | TrlEff (gene RPS20): −1.35 | TrlEff (gene RPS21): −0.60 | TrlEff (gene RPS25): −0.89 | TrlEff (gene RPS27): −1.54 | Rapamycin TrlEff (gene RPS27): −1.55 | TrlEff (gene RPS27A): −0.89 | TrlEff (gene RPS28): −0.80 | Rapamycin TrlEff (gene SDCCAG10): −1.50 | TrlEff (gene SLC19A1): 0.23 | TrlEff (gene TKT): −0.11 | TrlEff (gene TPT1): −1.22 | TrlEff (gene TSC2): 0.34 | TrlEff (gene UBA52): −0.22 | Rapamycin TrlEff (gene UBTD2): −1.64 | Rapamycin TrlEff (gene UCHL5): −1.56 | Rapamycin TrlEff (gene VHL): 1.67 | TrlEff (gene VIM): −0.40 | TrlEff (gene YB1): −0.59
